Experimental data published in patent US11117901B2, “Substituted pyrazolo[4,3-h]quinazolines as choline kinase inhibitors” (NERVIANO MEDICAL SCIENCES S.R.L., priority 2017, dated 2021).

Columns and labels:
[1] = biological target: T1, hChoKβ FL (Homo sapiens, UniProt Q9Y259); assay: Biochemical kinase inhibition assay (Kinase-Glo luminescent) on hChoKβ FL; details: recombinant hChoKβ FL 30 nM, ATP 5 μM, choline 20 μM, 60 min rt; read-out: ChoKβ IC50
T1 construct: hChoKβ full length (FL), corresponding to aminoacids 2-395; GST (N, cleaved yes); PreScission Protease recognition site (N); made in house; host or cells: Escherichia coli BL21pLysS (DE3)
T1 sequence (Q9Y259 2-395): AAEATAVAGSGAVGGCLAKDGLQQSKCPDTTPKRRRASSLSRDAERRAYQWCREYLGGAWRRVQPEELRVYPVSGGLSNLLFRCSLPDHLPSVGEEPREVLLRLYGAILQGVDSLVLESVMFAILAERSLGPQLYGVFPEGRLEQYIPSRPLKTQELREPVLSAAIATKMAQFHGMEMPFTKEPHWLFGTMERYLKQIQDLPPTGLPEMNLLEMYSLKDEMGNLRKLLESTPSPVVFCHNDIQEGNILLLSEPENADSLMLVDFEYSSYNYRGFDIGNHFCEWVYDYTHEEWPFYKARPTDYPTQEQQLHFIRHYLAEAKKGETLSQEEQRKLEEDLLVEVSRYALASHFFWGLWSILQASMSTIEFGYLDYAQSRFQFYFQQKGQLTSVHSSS
Method in brief: (§1)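 Kinase-Glo residual-ATP luminescence with in-house E. coli-expressed, tag-cleaved enzymes: Δ49N-hChoKα 2.2 nM with 5 μM choline; hChoKβ FL 30 nM with 20 μM choline. Both used 5 μM ATP, 60 min at room temperature, 1% DMSO, pH 7.5 Hepes buffer. IC50 from 4-parameter fits of ten 3-fold dilutions from 10 μM.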

[2] = biological target: T2, Δ49N-hChoKα (Homo sapiens, UniProt P35790); assay: Biochemical kinase inhibition assay (Kinase-Glo luminescent) on Δ49N-hChoKα; details: recombinant Δ49N-hChoKα 2.2 nM, ATP 5 μM, choline 5 μM, 60 min rt; read-out: ChoKα IC50
T2 construct: cDNA fragment 362-1534, corresponding to aminoacids 50 457; GST (N, cleaved yes); PreScission Protease recognition site (N); made in house; host or cells: Escherichia coli BL21pLysS (DE3)
T2 sequence (P35790 50-439 isoform P35790-2): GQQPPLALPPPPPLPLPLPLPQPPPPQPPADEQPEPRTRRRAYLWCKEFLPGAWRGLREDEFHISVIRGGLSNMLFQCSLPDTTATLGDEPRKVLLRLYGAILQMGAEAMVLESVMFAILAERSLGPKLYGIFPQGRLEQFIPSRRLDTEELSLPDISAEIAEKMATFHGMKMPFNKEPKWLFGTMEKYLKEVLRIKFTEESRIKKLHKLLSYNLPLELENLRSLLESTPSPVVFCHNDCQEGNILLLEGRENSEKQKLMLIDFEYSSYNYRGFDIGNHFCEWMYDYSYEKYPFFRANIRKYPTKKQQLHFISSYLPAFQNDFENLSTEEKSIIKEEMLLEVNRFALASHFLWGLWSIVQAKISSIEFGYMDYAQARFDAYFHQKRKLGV
Method in brief: as §1

[3] = tested on: [Phosphocholine] in MDA-MB-468 cell extracts; assay: Phosphocholine determination assay in cell extracts (target inhibition in cells); type: cell-based; details: Homo sapiens, 24 h treatment, vs untreated control
Description: (§2) For the determination of phosphocholine in cells, extracts were prepared according to ref. Cancer Res., 2005, 65, 9369-9376 with some modifications. MDA-MB-468 breast cancer cell line was plated at 1×10^6 cells in 10 cm petri dish culture in RPMI, 10% FCS culture medium. After 24 h, fresh medium and a compound of general formula (I) were added for further 24 h. At the end of the treatment, the cells were trypsinised, counted and the diameter was determined using a Coulter Counter (Multisizer 3, Beckman). Cells were washed twice with ice-cold physiologic saline solution and 2×10^6 cells resuspended in 0.3 mL ice-cold twice-distilled water. Then, 0.7 mL ice-cold absolut EtOH were added (final ratio EtOH/H2O 70:30, v/v). After 24 h at −20° C. the samples were sonicated and centrifuged at 14,000×g for 30 minutes.
(§3) Phosphocholine concentration levels were assessed in the supernatants using an Ultra High Pressure Liquid Chromatography system (UPLC®, Waters) coupled with a triple quadrupoles mass spectrometer (TQD, Waters) operating in single reaction monitoring mode (SRM). Analyses were performed using Acquity HSS T3 column 2.1×50 mm column, 1.8 μm particle size. Mobile phase A was H2O, modified with 0.15% formic acid, and mobile phase B was MeOH (100% A→97% A over 1 min, flow rate 0.5 mL/min). Waters TQD triple quad mass spectrometer was equipped with an electrospray ion source operating in the positive mode. Source parameters were set as follows: desolvation gas flow 1000 L/h, cone gas flow 50 L/h; collision gas flow 0.2 mL/min; source temperature 130° C.; desolvation temperature 450° C. Dimethyl glicine (DMG) was added to samples as internal standard at 100 μM final concentration. The monitored transitions were m/z 184.00 to 85.7 (collision energy 24 eV) for phosphocholine and m/z 103.0 to 57.5 (collision energy 13 eV) for DMG. The concentration of PCho in the sample was normalized to the total volume of cells (number cells×volume of single cell considered like a sphere).
As an example, the mechanism of action of cpd 39 is reported in Table 2 (Control refers to untreated cells).

[4] = tested on: [Phosphocholine] in MDA-MB-468 cell supernatants; assay: Phosphocholine determination in cell culture medium (supernatants); type: cell-based; details: Homo sapiens, 24 h treatment, vs untreated control
Description: as §2
as §3, with “Dimethyl glicine (DMG) was added to samples as internal standard at 100 μM final concentration.” left out, “The concentration of PCho in the sample was normalized to the total volume of cells (number cells×volume of single cell considered like a sphere).” left out
For the determination of phosphocholine in cell culture medium, cell culture supernatants (500 μL) were denatured by adding 100 μL of trichloroacetic acid (TCA) 1M containing dimethyl glicine (DMG) (100 μM), used as internal standard. […] The supernatants were subsequently analyzed for phosphocholine determination. […]

Structure (SMILES) | IC50 [1] | IC50 [2] | also measured
CC1(C)Cc2cnc(N)nc2-c2[nH]nc(C(=O)Nc3ncc(CC(=O)O)s3)c21 [compound 72] | 2510 nM | 268 nM | –
CC(C)(C)OC(=O)NC1CCN(C(=O)c2ccc(NC(=O)c3n[nH]c4c3C(C)(C)Cc3cnc(N)nc3-4)cc2)CC1 [compound 46] | 1620 nM | 110 nM | –
CC1(C)Cc2cnc(N)nc2-c2[nH]nc(C(=O)Nc3ccc(C(=O)N4CCC(N5CCCC5)CC4)cc3)c21 [compound 13] | 122 nM | 42 nM | –
CNc1ncc2c(n1)-c1c(c(C(=O)Nc3nc(CC(=O)N4CCC(N5CCC(C)CC5)CC4)cs3)nn1C)C(C)(C)C2 [compound 85] | > 10000 nM | 52 nM | –
CNc1ncc2c(n1)-c1[nH]nc(C(=O)Nc3nc(CC(=O)N4CCC(N5CCC(C)CC5)CC4)cs3)c1C(C)(C)C2 [compound 122] | > 10000 nM | 11 nM | –
CC1(C)Cc2cnc(N)nc2-c2[nH]nc(C(=O)Nc3nc(C(=O)O)cs3)c21 [compound 67] | 703 nM | 81 nM | –
CCOC(=O)Cc1csc(NC(=O)c2n[nH]c3c2C(C)(C)Cc2cnc(N)nc2-3)n1 [compound 33] | > 10000 nM | 430 nM | –
CC1(C)Cc2cnc(N)nc2-c2[nH]nc(C(=O)Nc3nc(CC(=O)NC4CCCCC4)cs3)c21 [compound 35] | 439 nM | 47 nM | –
CC1(C)Cc2cnc(N)nc2-c2[nH]nc(C(=O)Nc3nc(COC4CCN(C5CCC6(CC5)CC6)CC4)cs3)c21 [compound 230] | 594 nM | 24 nM | –
CC(C)(C)OC(=O)NC1CCN(Cc2cccc(NC(=O)c3n[nH]c4c3C(C)(C)Cc3cnc(N)nc3-4)c2)CC1 [compound 114] | 2390 nM | 562 nM | –
CN(C)C1CCN(Cc2ccc(NC(=O)c3n[nH]c4c3C(C)(C)Cc3cnc(N)nc3-4)cc2)CC1 [compound 118] | 72 nM | 33 nM | –
COC(=O)C1(c2csc(NC(=O)c3n[nH]c4c3C(C)(C)Cc3cnc(N)nc3-4)n2)CC1 [compound 127] | > 10000 nM | 617 nM | –
CC1(C)Cc2cnc(N)nc2-c2[nH]nc(C(=O)Nc3cccc(C4OCCCO4)c3)c21 [compound 106] | 5200 nM | 343 nM | –
CC1(OCc2csc(NC(=O)c3n[nH]c4c3C(C)(C)Cc3cnc(N)nc3-4)n2)CCN(C2CCCCCC2)CC1 [compound 226] | 376 nM | 20 nM | –
Cn1nc(C(=O)Nc2ccc(CN3CCC(N4CCCCC4)CC3)cc2)c2c1-c1nc(N)ncc1CC2(C)C [compound 128] | > 10000 nM | 126 nM | –
CC1(C)Cc2cnc(N)nc2-c2[nH]nc(C(=O)NCc3ccc(C(=O)N4CCC(N5CCCCC5)CC4)cc3)c21 [compound 165] | 69 nM | 180 nM | –
CC1(C)Cc2cnc(N)nc2-c2[nH]nc(C(=O)Nc3ccc(C(=O)NC4CCC4)cc3)c21 [compound 30] | 136 nM | 110 nM | –
CC1(C)Cc2cnc(N)nc2-c2[nH]nc(C(=O)Nc3cccc(C(=O)N4CCC(N5CCCC5)CC4)c3)c21 [compound 26] | 435 nM | 266 nM | –
CN(C)C1CCN(Cc2ccc(NC(=O)c3nn(C)c4c3C(C)(C)Cc3cnc(N)nc3-4)cc2)CC1 [compound 117] | > 10000 nM | 16 nM | –
CC1(C)Cc2cnc(N)nc2-c2[nH]nc(C(=O)Nc3ccc4c(c3)OCO4)c21 [compound 4] | 1120 nM | 244 nM | –
CC1(C)Cc2cnc(N)nc2-c2[nH]nc(C(=O)Nc3nc(CC(=O)NC4CCN(C5CCCCC5)CC4)cs3)c21 [compound 145] | 928 nM | 11 nM | –
CC1(C)Cc2cnc(N)nc2-c2[nH]nc(C(=O)Nc3nc(CC(=O)N4CCC(N5CCCCC5)CC4)cs3)c21 [compound 39] | 84 nM | 2 nM | inhibition at 0.08 µM ([3]; 0.08 μM compound): 35%; inhibition at 0.4 µM ([3]; 0.4 μM compound): 87%; inhibition at 2 µM ([3]; 2 μM compound): 98%; inhibition at 0.08 µM ([4]; 0.08 μM compound): 42%; inhibition at 0.4 µM ([4]; 0.4 μM compound): 85%; inhibition at 2 µM ([4]; 2 μM compound): 88%
CN(C)[C@@H]1CCN(C(=O)Cc2csc(NC(=O)c3n[nH]c4c3C(C)(C)Cc3cnc(N)nc3-4)n2)C1 [compound 116] | 77 nM | 4 nM | –
